In the NIST ThermoML archive (doi:10.1021/je060017i):
± gives the expanded uncertainty stated by the source.

Columns and labels:
[1] = xn = mol fraction of the nth substance listed; details: 101 kPa, Liquid
[2] = excess molar enthalpy (molar enthalpy of mixing); xn = mol fraction of the nth substance listed; details: 101 kPa, Liquid, Flow calorimetry

CC1CCCO1 (configuration not stated) [2-methyltetrahydrofuran] + CCCCO
Details | excess molar enthalpy [kcal/mol] | mass density [kg/m3] | speed of sound [m/s] | viscosity [mPa·s]
[1], 283.15 K, x1 = 0.0447 | – | – | 1292.4 ± 1.7 | –
[1], 283.15 K, x1 = 0.0518 | – | – | – | 3.231 ± 0.074
[1], 283.15 K, x1 = 0.0539 | – | 820.03 ± 0.91 | – | –
[1], 283.15 K, x1 = 0.1047 | – | 822.92 ± 0.9 | – | –
[1], 283.15 K, x1 = 0.1048 | – | – | – | 2.67 ± 0.062
[1], 283.15 K, x1 = 0.1154 | – | – | 1292.6 ± 1.7 | –
[1], 283.15 K, x1 = 0.2068 | – | 828.51 ± 0.89 | – | –
[1], 283.15 K, x1 = 0.2123 | – | – | – | 1.958 ± 0.046
[1], 283.15 K, x1 = 0.2143 | – | – | 1291.5 ± 1.7 | –
[1], 283.15 K, x1 = 0.2451 | – | – | 1291 ± 1.7 | –
[1], 283.15 K, x1 = 0.3108 | – | 833.9 ± 0.88 | – | –
[1], 283.15 K, x1 = 0.3159 | – | – | – | 1.507 ± 0.036
[1], 283.15 K, x1 = 0.4147 | – | 839.04 ± 0.86 | – | –
[1], 283.15 K, x1 = 0.4197 | – | – | – | 1.218 ± 0.03
[1], 283.15 K, x1 = 0.4221 | – | – | 1286.8 ± 1.6 | –
[1], 283.15 K, x1 = 0.4893 | – | 842.56 ± 0.85 | – | –
[1], 283.15 K, x1 = 0.5195 | – | – | – | 1.013 ± 0.025
[1], 283.15 K, x1 = 0.5204 | – | – | 1284 ± 1.6 | –
[1], 283.15 K, x1 = 0.6172 | – | – | 1281.2 ± 1.6 | –
[1], 283.15 K, x1 = 0.6195 | – | 848.41 ± 0.84 | – | –
[1], 283.15 K, x1 = 0.6211 | – | – | – | 0.865 ± 0.022
[1], 283.15 K, x1 = 0.7116 | – | – | – | 0.76 ± 0.02
[1], 283.15 K, x1 = 0.7128 | – | – | 1278.1 ± 1.6 | –
[1], 283.15 K, x1 = 0.724 | – | 852.97 ± 0.83 | – | –
[1], 283.15 K, x1 = 0.8078 | – | – | 1275.2 ± 1.6 | –
[1], 283.15 K, x1 = 0.8103 | – | – | – | 0.675 ± 0.018
[1], 283.15 K, x1 = 0.8923 | – | 859.92 ± 0.81 | – | –
[1], 283.15 K, x1 = 0.8952 | – | – | 1272.2 ± 1.6 | –
[1], 283.15 K, x1 = 0.9246 | – | – | – | 0.607 ± 0.017
[1], 283.15 K, x1 = 0.9364 | – | – | 1270.3 ± 1.6 | –
[1], 283.15 K, x1 = 0.9585 | – | – | – | 0.584 ± 0.016
[1], 298.15 K, x1 = 0.0341 | – | – | 1242.6 ± 1.6 | –
[1], 298.15 K, x1 = 0.0518 | – | – | – | 2.212 ± 0.052
[1], 298.15 K, x1 = 0.102 | – | 811.16 ± 0.93 | – | –
[1], 298.15 K, x1 = 0.1048 | – | – | – | 1.914 ± 0.045
[1], 298.15 K, x1 = 0.1054 | – | – | 1241.6 ± 1.6 | –
[1], 298.15 K, x1 = 0.2068 | – | 816.38 ± 0.92 | – | –
[1], 298.15 K, x1 = 0.2085 | – | – | 1238.8 ± 1.6 | –
[1], 298.15 K, x1 = 0.2123 | – | – | – | 1.446 ± 0.035
[1], 298.15 K, x1 = 0.2968 | – | – | 1235.7 ± 1.6 | –
[1], 298.15 K, x1 = 0.3108 | – | 821.37 ± 0.91 | – | –
[1], 298.15 K, x1 = 0.3159 | – | – | – | 1.145 ± 0.028
[1], 298.15 K, x1 = 0.3535 | – | – | 1233.4 ± 1.6 | –
[1], 298.15 K, x1 = 0.4152 | – | 826.08 ± 0.9 | – | –
[1], 298.15 K, x1 = 0.4197 | – | – | – | 0.951 ± 0.024
[1], 298.15 K, x1 = 0.4283 | – | – | 1230.3 ± 1.6 | –
[1], 298.15 K, x1 = 0.4848 | – | 829.16 ± 0.89 | – | –
[1], 298.15 K, x1 = 0.5058 | – | – | 1226.8 ± 1.6 | –
[1], 298.15 K, x1 = 0.5195 | – | – | – | 0.806 ± 0.021
[1], 298.15 K, x1 = 0.6075 | – | – | 1222.2 ± 1.6 | –
[1], 298.15 K, x1 = 0.6191 | – | 834.74 ± 0.87 | – | –
[1], 298.15 K, x1 = 0.6211 | – | – | – | 0.701 ± 0.019
[1], 298.15 K, x1 = 0.7077 | – | – | 1217.6 ± 1.6 | –
[1], 298.15 K, x1 = 0.7116 | – | – | – | 0.626 ± 0.017
[1], 298.15 K, x1 = 0.7245 | – | 838.88 ± 0.86 | – | –
[1], 298.15 K, x1 = 0.8103 | – | – | – | 0.563 ± 0.016
[1], 298.15 K, x1 = 0.8111 | – | – | 1212.6 ± 1.6 | –
[1], 298.15 K, x1 = 0.8157 | – | 842.28 ± 0.86 | – | –
[1], 298.15 K, x1 = 0.8911 | – | 845.05 ± 0.85 | – | –
[1], 298.15 K, x1 = 0.8947 | – | – | 1208.3 ± 1.6 | –
[1], 298.15 K, x1 = 0.9246 | – | – | – | 0.507 ± 0.014
[1], 298.15 K, x1 = 0.9337 | – | – | 1206.1 ± 1.6 | –
[1], 298.15 K, x1 = 0.9585 | – | – | – | 0.502 ± 0.014
[1], 313.15 K, x1 = 0.0518 | – | – | – | 1.555 ± 0.037
[1], 313.15 K, x1 = 0.0519 | – | – | 1184.6 ± 1.6 | –
[1], 313.15 K, x1 = 0.1038 | – | 799.46 ± 0.96 | – | –
[1], 313.15 K, x1 = 0.1048 | – | – | – | 1.361 ± 0.033
[1], 313.15 K, x1 = 0.1237 | – | – | 1181.8 ± 1.6 | –
[1], 313.15 K, x1 = 0.2098 | – | 804.34 ± 0.95 | – | –
[1], 313.15 K, x1 = 0.2123 | – | – | – | 1.085 ± 0.027
[1], 313.15 K, x1 = 0.2168 | – | – | 1177.7 ± 1.6 | –
[1], 313.15 K, x1 = 0.3097 | – | – | 1172.9 ± 1.6 | –
[1], 313.15 K, x1 = 0.3139 | – | 808.86 ± 0.94 | – | –
[1], 313.15 K, x1 = 0.3159 | – | – | – | 0.896 ± 0.023
[1], 313.15 K, x1 = 0.4133 | – | – | 1167.2 ± 1.6 | –
[1], 313.15 K, x1 = 0.4135 | – | 813 ± 0.93 | – | –
[1], 313.15 K, x1 = 0.4197 | – | – | – | 0.759 ± 0.02
[1], 313.15 K, x1 = 0.4906 | – | 816.02 ± 0.92 | – | –
[1], 313.15 K, x1 = 0.511 | – | – | 1161.3 ± 1.6 | –
[1], 313.15 K, x1 = 0.5195 | – | – | – | 0.651 ± 0.017
[1], 313.15 K, x1 = 0.6175 | – | 820.8 ± 0.91 | – | –
[1], 313.15 K, x1 = 0.6211 | – | – | – | 0.574 ± 0.016
[1], 313.15 K, x1 = 0.6561 | – | – | 1152.6 ± 1.6 | –
[1], 313.15 K, x1 = 0.7116 | – | – | – | 0.518 ± 0.015
[1], 313.15 K, x1 = 0.7256 | – | 824.59 ± 0.9 | – | –
[1], 313.15 K, x1 = 0.7265 | – | – | 1148.3 ± 1.6 | –
[1], 313.15 K, x1 = 0.8103 | – | – | – | 0.473 ± 0.014
[1], 313.15 K, x1 = 0.8151 | – | – | 1142.7 ± 1.6 | –
[1], 313.15 K, x1 = 0.8172 | – | 827.71 ± 0.89 | – | –
[1], 313.15 K, x1 = 0.8909 | – | 830.17 ± 0.89 | – | –
[1], 313.15 K, x1 = 0.8995 | – | – | 1137.1 ± 1.6 | –
[1], 313.15 K, x1 = 0.9246 | – | – | – | 0.432 ± 0.013
[1], 313.15 K, x1 = 0.9476 | – | – | 1133.5 ± 1.6 | –
[1], 313.15 K, x1 = 0.9585 | – | – | – | 0.425 ± 0.012
[2], 283.15 K, x1 = 0.054 | 0.0237 ± 0.000717 | – | – | –
[2], 283.15 K, x1 = 0.104 | 0.0492 ± 0.0012 | – | – | –
[2], 283.15 K, x1 = 0.206 | 0.092 ± 0.00191 | – | – | –
[2], 283.15 K, x1 = 0.308 | 0.131 ± 0.00287 | – | – | –
[2], 283.15 K, x1 = 0.411 | 0.154 ± 0.00335 | – | – | –
[2], 283.15 K, x1 = 0.51 | 0.166 ± 0.00359 | – | – | –
[2], 283.15 K, x1 = 0.609 | 0.166 ± 0.00359 | – | – | –
[2], 283.15 K, x1 = 0.708 | 0.151 ± 0.00335 | – | – | –
[2], 283.15 K, x1 = 0.806 | 0.121 ± 0.00263 | – | – | –
[2], 283.15 K, x1 = 0.907 | 0.0696 ± 0.00143 | – | – | –
[2], 283.15 K, x1 = 0.953 | 0.038 ± 0.000956 | – | – | –
[2], 298.15 K, x1 = 0.054 | 0.0263 ± 0.000717 | – | – | –
[2], 298.15 K, x1 = 0.104 | 0.0526 ± 0.0012 | – | – | –
[2], 298.15 K, x1 = 0.206 | 0.102 ± 0.00215 | – | – | –
[2], 298.15 K, x1 = 0.308 | 0.14 ± 0.00311 | – | – | –
[2], 298.15 K, x1 = 0.411 | 0.166 ± 0.00359 | – | – | –
[2], 298.15 K, x1 = 0.51 | 0.179 ± 0.00382 | – | – | –
[2], 298.15 K, x1 = 0.609 | 0.178 ± 0.00382 | – | – | –
[2], 298.15 K, x1 = 0.708 | 0.162 ± 0.00359 | – | – | –
[2], 298.15 K, x1 = 0.806 | 0.129 ± 0.00287 | – | – | –
[2], 298.15 K, x1 = 0.907 | 0.0741 ± 0.00167 | – | – | –
[2], 298.15 K, x1 = 0.953 | 0.0406 ± 0.000956 | – | – | –
[2], 313.15 K, x1 = 0.054 | 0.0277 ± 0.000717 | – | – | –
[2], 313.15 K, x1 = 0.104 | 0.0559 ± 0.0012 | – | – | –
[2], 313.15 K, x1 = 0.206 | 0.109 ± 0.00239 | – | – | –
[2], 313.15 K, x1 = 0.308 | 0.151 ± 0.00335 | – | – | –
[2], 313.15 K, x1 = 0.411 | 0.179 ± 0.00382 | – | – | –
[2], 313.15 K, x1 = 0.51 | 0.193 ± 0.00406 | – | – | –
[2], 313.15 K, x1 = 0.609 | 0.192 ± 0.00406 | – | – | –
[2], 313.15 K, x1 = 0.708 | 0.174 ± 0.00382 | – | – | –
[2], 313.15 K, x1 = 0.806 | 0.138 ± 0.00311 | – | – | –
[2], 313.15 K, x1 = 0.907 | 0.0786 ± 0.00167 | – | – | –
[2], 313.15 K, x1 = 0.953 | 0.0428 ± 0.000956 | – | – | –
